Test results from patent US8569292B2, “Cyclic inhibitors of 11β-hydroxysteroid dehydrogenase 1” (Vitae Pharmaceuticals, Inc., priority 2008, dated 2013).

Columns and labels:
[1] = biological target: T1, CYP2C9 (Homo sapiens, UniProt P11712); test: Biological Test Example 7: CYP2C9 inhibition (naproxen O-demethylation); format: in vitro ADME
T1 construct: purchased Invitrogen 2859; host or cells: insect cells infected with baculovirus (microsomes)

[2] = biological target: CYP2C19 (Homo sapiens, UniProt P33261); test: Biological Test Example 8: CYP2C19 inhibition (diazepam N-demethylation); format: in vitro ADME
[3] = biological target: CYP3A4 (Homo sapiens, UniProt P08684); test: Biological Test Example 6: CYP3A4 inhibition (erythromycin N-demethylation); format: in vitro ADME
[4] = biological target: T1, CYP2C9; test: Biological Test Example 9: CYP2C9 inhibition (Invitrogen kit, fluorogenic OOMR); format: in vitro ADME
[5] = biological target: T2, 11β-HSD1 (Homo sapiens, UniProt P28845); test: biochemical; details: for inhibition at 0.1 µM: read-out: Average % inhibition at 100 nM
[6] = biological target: T2, 11β-HSD1; test: Biological Test Example 4: microsomal 11β-HSD1 in the presence of 50% human plasma; details: for Shift: IC50 in Test Example 4 divided by IC50 in Test Example 1
[7] = Biological Test Example 1 IC50 (nM)
[8] = IC50 Range, Biological Test Example 1

Chain of CYP2C19 (P33261 whole entry): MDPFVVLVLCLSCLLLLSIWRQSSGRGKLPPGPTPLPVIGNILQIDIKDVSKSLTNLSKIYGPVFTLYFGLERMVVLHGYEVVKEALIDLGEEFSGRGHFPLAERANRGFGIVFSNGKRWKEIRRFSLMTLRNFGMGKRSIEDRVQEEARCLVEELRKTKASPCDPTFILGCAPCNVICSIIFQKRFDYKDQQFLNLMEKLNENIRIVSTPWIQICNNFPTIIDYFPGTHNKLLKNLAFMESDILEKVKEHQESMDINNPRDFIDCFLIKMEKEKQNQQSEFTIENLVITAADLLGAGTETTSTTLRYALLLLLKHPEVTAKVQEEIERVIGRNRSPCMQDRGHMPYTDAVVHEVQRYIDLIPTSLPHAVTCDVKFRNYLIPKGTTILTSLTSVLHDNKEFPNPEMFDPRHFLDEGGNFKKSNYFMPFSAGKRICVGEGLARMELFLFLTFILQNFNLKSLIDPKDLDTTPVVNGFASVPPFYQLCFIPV
Chain of CYP3A4 (P08684 whole entry): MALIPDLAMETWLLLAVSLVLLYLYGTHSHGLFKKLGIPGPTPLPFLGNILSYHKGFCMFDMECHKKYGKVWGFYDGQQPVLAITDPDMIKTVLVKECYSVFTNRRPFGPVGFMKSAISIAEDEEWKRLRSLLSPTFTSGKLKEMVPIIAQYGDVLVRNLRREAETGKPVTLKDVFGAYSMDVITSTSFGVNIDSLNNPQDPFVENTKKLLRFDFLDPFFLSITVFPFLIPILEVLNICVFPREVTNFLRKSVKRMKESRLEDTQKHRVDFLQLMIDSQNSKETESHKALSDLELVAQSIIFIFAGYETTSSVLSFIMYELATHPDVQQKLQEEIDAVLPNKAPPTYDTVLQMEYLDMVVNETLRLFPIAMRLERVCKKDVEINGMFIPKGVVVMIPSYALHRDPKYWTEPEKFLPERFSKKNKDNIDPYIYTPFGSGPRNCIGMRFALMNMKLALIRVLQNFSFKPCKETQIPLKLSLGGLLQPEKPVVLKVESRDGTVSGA
T2 sequence (P28845 whole entry): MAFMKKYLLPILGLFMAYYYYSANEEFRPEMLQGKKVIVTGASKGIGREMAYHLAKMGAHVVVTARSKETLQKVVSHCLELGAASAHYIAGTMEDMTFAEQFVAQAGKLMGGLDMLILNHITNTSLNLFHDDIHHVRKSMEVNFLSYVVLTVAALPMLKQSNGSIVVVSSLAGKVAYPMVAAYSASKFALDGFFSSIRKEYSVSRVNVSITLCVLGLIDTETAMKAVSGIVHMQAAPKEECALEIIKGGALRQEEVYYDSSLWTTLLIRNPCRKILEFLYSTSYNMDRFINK
T1 sequence (P11712 whole entry): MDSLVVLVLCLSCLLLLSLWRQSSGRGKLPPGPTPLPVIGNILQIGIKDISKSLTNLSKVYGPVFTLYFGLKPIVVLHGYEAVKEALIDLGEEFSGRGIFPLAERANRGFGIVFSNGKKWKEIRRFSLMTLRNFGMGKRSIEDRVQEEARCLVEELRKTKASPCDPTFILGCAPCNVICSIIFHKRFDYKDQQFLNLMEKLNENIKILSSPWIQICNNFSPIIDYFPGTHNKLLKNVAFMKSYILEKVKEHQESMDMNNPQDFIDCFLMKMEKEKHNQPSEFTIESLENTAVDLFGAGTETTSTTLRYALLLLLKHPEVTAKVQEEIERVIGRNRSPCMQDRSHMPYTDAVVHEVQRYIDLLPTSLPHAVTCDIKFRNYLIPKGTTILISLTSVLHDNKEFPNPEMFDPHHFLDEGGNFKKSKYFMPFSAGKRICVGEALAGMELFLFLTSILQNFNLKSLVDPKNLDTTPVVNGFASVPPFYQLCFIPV

| SMILES | IC50 [1] | IC50 [2] | IC50 [3] | IC50 [4] | IC50 [5, 7] | IC50 [5, 8] | inhibition at 0.1 µM [5] | IC50 [6] | Shift [6] |
| --- | --- | --- | --- | --- | --- | --- | --- | --- | --- |
| C[C@@H](c1ccc(-c2ccc(C(N)=O)cn2)cc1)N1CC[C@](CC(C)(C)O)(c2ccccc2)OC1=O [EXAMPLE 143, 6-(4-((S)-1-((S)-6-(2-hydroxy-2-methylpropyl)-2-oxo-6-phenyl-1,3-oxazinan-3-yl)ethyl)phenyl)nicotinamide] | > 50 µM | > 50 µM |  |  |  |  |  |  |  |
| C[C@@H](c1ccc(-c2cccc([S+](C)[O-])n2)cc1)N1CC[C@](CC(C)(C)O)(c2ccccc2)OC1=O (stereo partly drawn) [EXAMPLE 191, (S)-6-(2-Hydroxy-2-methyl-propyl)-3-{(S)-1-[4-(6-methanesulfinyl-pyridin-2-yl)-phenyl]-ethyl}-6-phenyl-[1,3]oxazinan-2-one] | > 50 µM | > 50 µM | 36.4 µM |  |  |  |  |  |  |
| C[C@@H](c1ccc(-c2cncc([S+](C)[O-])c2)cc1)N1CC[C@](CC(C)(C)O)(c2ccccc2)OC1=O (stereo partly drawn) [EXAMPLE 189, (S)-6-(2-Hydroxy-2-methyl-propyl)-3-{(S)-1-[4-(5-methanesulfinyl-pyridin-3-yl)-phenyl]-ethyl}-6-phenyl-[1,3]oxazinan-2-one] | > 50 µM | > 50 µM | > 50 µM |  |  |  |  |  |  |
| Cc1nc(C)c(-c2ccc([C@H](C)N3CC[C@](CC(C)(C)O)(c4ccccc4)OC3=O)cc2)s1 [EXAMPLE 176, 3-{(S)-1-[4-(2,4-Dimethyl-thiazol-5-yl)-phenyl]-ethyl}-(S)-6-(2-hydroxy-2-methyl-propyl)-6-phenyl-[1,3]oxazinan-2-one] | 6 µM | 7.9 µM | 7.5 µM |  |  |  |  |  |  |
| C[C@@H](c1ccc(-c2nncs2)cc1)N1CC[C@](CC(C)(C)O)(c2ccccc2)OC1=O [EXAMPLE 173, (S)-6-(2-Hydroxy-2-methyl-propyl)-6-phenyl-3-[(S)-1-(4-[1,3,4]thiadiazol-2-yl-phenyl)-ethyl]-[1,3]oxazinan-2-one] | 27.2 µM | 33.6 µM | 25.1 µM |  |  |  |  |  |  |
| C[C@@H](c1ccc(-c2nnc(C(F)(F)F)s2)cc1)N1CC[C@](CC(C)(C)O)(c2ccccc2)OC1=O [EXAMPLE 179, (S)-6-(2-Hydroxy-2-methyl-propyl)-6-phenyl-3-{(S)-1-[4-(5-trifluoromethyl-[1,3,4]thiadiazol-2-yl)-phenyl]-ethyl}-[1,3]oxazinan-2-one] | 10.7 µM | 17 µM | 21.1 µM |  |  |  |  |  |  |
| C[C@@H](c1ccc(-c2cc([S+](C)[O-])ccn2)cc1)N1CC[C@](CC(C)(C)O)(c2ccccc2)OC1=O (stereo partly drawn) [EXAMPLE 184, (S)-6-(2-Hydroxy-2-methyl-propyl)-3-{(S)-1-[4-(4-methanesulfinyl-pyridin-2-yl)-phenyl]-ethyl}-6-phenyl-[1,3]oxazinan-2-one] | > 50 µM | > 50 µM | > 50 µM |  |  |  |  |  |  |
| Cc1cc(-c2ccc([C@H](C)N3CC[C@](CCO)(c4ccc(F)cc4)OC3=O)cc2)ccn1 [EXAMPLE 75, (S)-6-(4-fluorophenyl)-6-(2-hydroxyethyl)-3-((S)-1-(4-(2-methylpyridin-4-yl)phenyl)ethyl)-1,3-oxazinan-2-one] | 12.2 µM |  | 14.9 µM | 9.1 µM | 1.1 nM | < 100 nM | 97.7% | 0.0098 µM |  |
| C[C@@H](c1ccc(-c2ccnc(S(C)(=O)=O)c2)cc1)N1CC[C@](CC(C)(C)O)(c2ccccc2)OC1=O [EXAMPLE 187, (S)-6-(2-Hydroxy-2-methyl-propyl)-3-{(S)-1-[4-(2-methanesulfonyl-pyridin-4-yl)-phenyl]-ethyl}-6-phenyl-[1,3]oxazinan-2-one] | 25.9 µM | > 50 µM | > 50 µM |  |  |  |  |  |  |
| Cc1nn(C)cc1-c1ccc([C@H](C)N2CC[C@](CC(C)(C)O)(c3ccccc3)OC2=O)cc1 [EXAMPLE 193, 3-{(S)-1-[4-(1,3-Dimethyl-1H-pyrazol-4-yl)-phenyl]-ethyl}-(S)-6-(2-hydroxy-2-methyl-propyl)-6-phenyl-[1,3]oxazinan-2-one] | 24.2 µM | 33.3 µM | 26.6 µM |  |  |  |  |  |  |
| C[C@@H](c1ccc(-c2nccs2)cc1)N1CC[C@](CC(C)(C)O)(c2ccccc2)OC1=O [EXAMPLE 174, (S)-6-(2-Hydroxy-2-methyl-propyl)-6-phenyl-3-[(S)-1-(4-thiazol-2-yl-phenyl)-ethyl]-[1,3]oxazinan-2-one] | 7.8 µM | 1 µM | 5.4 µM |  |  |  |  |  |  |
| C[C@@H](c1ccc(-c2cnc(C3CC3)nc2)cc1)N1CC[C@](CC(C)(C)O)(c2ccccc2)OC1=O [EXAMPLE 192, 3-{(S)-1-[4-(2-Cyclopropyl-pyrimidin-5-yl)-phenyl]-ethyl}-(S)-6-(2-hydroxy-2-methyl-propyl)-6-phenyl-[1,3]oxazinan-2-one] | 10.4 µM | 15.5 µM | 11.2 µM |  |  |  |  |  |  |
| Cc1cnc(-c2ccc([C@H](C)N3CC[C@](CC(C)(C)O)(c4ccccc4)OC3=O)cc2)cn1 [EXAMPLE 151, (S)-6-(2-hydroxy-2-methylpropyl)-3-((S)-1-(4-(5-methylpyrazin-2-yl)phenyl)ethyl)-6-phenyl-1,3-oxazinan-2-one] | 32.6 µM | 32.3 µM |  |  |  |  |  |  |  |
| COc1ccc(-c2ccc([C@H](C)N3CC[C@](CCCNS(C)(=O)=O)(c4ccccc4)OC3=O)cc2)cn1 [EXAMPLE 94, N-(3-((R)-3-((S)-1-(4-(6-methoxypyridin-3-yl)phenyl)ethyl)-2-oxo-6-phenyl-1,3-oxazinan-6-yl)propyl)methanesulfonamide] |  |  |  | 4.5 µM | 0.5 nM | < 100 nM | 98.7% | 0.005 µM | 11.0 |
| CNC(=O)c1ccc(-c2ccc([C@H](C)N3CC[C@](CC(C)(C)O)(c4ccccc4)OC3=O)cc2)nc1 [EXAMPLE 150, 6-(4-{1-[6-(2-Hydroxy-2-methyl-propyl)-2-oxo-6-phenyl-[1,3]oxazinan-3-yl]-ethyl}-phenyl)-N-methyl-nicotinamide] | 28.8 µM | 33.8 µM |  |  |  |  |  |  |  |
| C[C@@H](c1ccc(-c2ccccn2)cc1)N1CC[C@](CCCNS(C)(=O)=O)(c2ccccc2)OC1=O [EXAMPLE 89, N-(3-((R)-2-oxo-6-phenyl-3-((S)-1-(4-(pyridin-2-yl)phenyl)ethyl)-1,3-oxazinan-6-yl)propyl)methanesulfonamide] |  |  |  | 13.3 µM | 0.6 nM | < 100 nM | 98.9% | 0.0062 µM | 10.5 |
| Cc1cc(-c2ccc([C@H](C)N3CC[C@](CC(C)(C)C#N)(c4ccc(F)cc4)OC3=O)cc2)ccn1 [EXAMPLE 116, 3-((R)-6-(4-fluorophenyl)-3-((S)-1-(4-(2-methylpyridin-4-yl)phenyl)ethyl)-2-oxo-1,3-oxazinan-6-yl)-2,2-dimethylpropanenitrile] |  |  |  | 5.3 µM | 0.7 nM | < 100 nM | 99.6% | 0.0037 µM | 5.1 |
| Cc1cc(-c2ccc([C@H](C)N3CC[C@](CCCO)(c4ccc(F)cc4)OC3=O)cc2)nc(C)n1 [EXAMPLE 127, (R)-3-((S)-1-(4-(2,6-dimethylpyrimidin-4-yl)phenyl)ethyl)-6-(4-fluorophenyl)-6-(3-hydroxypropyl)-1,3-oxazinan-2-one] |  |  |  | > 30 µM | 6.1 nM | < 100 nM | 93.7% | 0.0698 µM | 11.5 |
